From article PMC12638379, “An innovative approach to development of new pyrazolylquinolin-2-one hybrids as dual EGFR and BRAF^V600E inhibitors” (Molecular Diversity, 2025)
Read-outs that look alike come from different tables or passages of the source.

System: NCI 60 cancer cell lines
Assay: NCI anticancer screening over a panel of 60 cancer cells, single concentration 10 µM
Assay type: cell-based, human
Conditions: Homo sapiens, read-out: % Growth Inhibition (GI %)
Procedure, shortened: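 Primary single-dose screen at 10 µM over the NCI panel of 60 human tumour cell lines (leukemia, CNS, lung, colon, kidney, ovary, breast, prostate). The standard NCI Developmental Therapeutics Program protocol was used.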

[1] = A549, Non-small cell lung cancer A549/ATCC, 10 μM
[2] = BT-549, Breast cancer BT-549, 10 μM
[3] = CAKI-1, Renal cancer CAKI-1, 10 μM
[4] = CCRF-CEM, Leukemia CCRF-CEM, 10 μM
[5] = COLO 205, Colon cancer COLO 205, 10 μM
[6] = DU-145, Prostate cancer DU-145, 10 μM
[7] = EKVX, Non-small cell lung cancer EKVX, 10 μM
[8] = HCC 2998, Colon cancer HCC-2998, 10 μM
[9] = HCT-15, Colon cancer HCT-15, 10 μM
[10] = HCT-116, Colon cancer HCT-116, 10 μM
[11] = HOP-62, Non-small cell lung cancer HOP-62, 10 μM
[12] = HOP-92, Non-small cell lung cancer HOP-92, 10 μM
[13] = HT-29, Colon cancer HT29, 10 μM
[14] = Hs-578T, Breast cancer HS 578T, 10 μM
[15] = IGROV-1, Ovarian cancer IGROV1, 10 μM
[16] = LOX IMVI, Melanoma LOX IMVI, 10 μM
[17] = MCF7, Breast cancer MCF7, 10 μM
[18] = MDA-MB-231, Breast cancer MDA-MB-231/ATCC, 10 μM
[19] = MDA-MB-435, Melanoma MDA-MB-435, 10 μM
[20] = MDA-MB-468, Breast cancer MDA-MB-468, 10 μM
[21] = NCI-H23, Non-small cell lung cancer NCI-H23, 10 μM
[22] = NCI-H226, Non-small cell lung cancer NCI-H226, 10 μM
[23] = NCI-H322M, Non-small cell lung cancer NCI-H322M, 10 μM
[24] = NCI-H460, Non-small cell lung cancer NCI-H460, 10 μM
[25] = NCI-H522, Non-small cell lung cancer NCI-H522, 10 μM
[26] = NCI/ADR-RES, Ovarian cancer NCI/ADR-RES, 10 μM
[27] = OVCAR-4, Ovarian cancer OVCAR-4, 10 μM
[28] = OVCAR-5, Ovarian cancer OVCAR-5, 10 μM
[29] = RPMI-8226, Leukemia RPMI-8226, 10 μM
[30] = RXF 393, Renal cancer RXF 393, 10 μM
[31] = SF-268, CNS Cancer SF-268, 10 μM
[32] = SF-295, CNS Cancer SF-295, 10 μM
[33] = SF-539, CNS Cancer SF-539, 10 μM
[34] = SK-MEL-2, Melanoma SK-MEL-2, 10 μM
[35] = SK-MEL-5, Melanoma SK-MEL-5, 10 μM
[36] = SK-MEL-28, Melanoma SK-MEL-28, 10 μM
[37] = SK-OV-3, Ovarian cancer SK-OV-3, 10 μM
[38] = SN12C, Renal cancer SN12C, 10 μM
[39] = SNB-19, CNS Cancer SNB-19, 10 μM
[40] = SNB-75, CNS Cancer SNB-75, 10 μM
[41] = SW-620, Colon cancer SW-620, 10 μM
[42] = T47D, Breast cancer T-47D, 10 μM
[43] = TK-10, Renal cancer TK-10, 10 μM
[44] = UACC-62, Melanoma UACC-62, 10 μM
[45] = UACC-257, Melanoma UACC-257, 10 μM
[46] = UO-31, Renal cancer UO-31, 10 μM

Question: What does the source list for `C/C(=N\Nc1ccc(S(N)(=O)=O)cc1)c1cnn(-c2cc(=O)[nH]c3ccc(C)cc23)c1C` [Compound 4b, (E)-4-(2-(1-(5-methyl-1-(6-methyl-2-oxo-1,2-dihydroquinolin-4-yl)-1H-pyrazol-4-yl)ethylidene)hydrazineyl)benzenesulfonamide]?
Answer: inhibition at 10 µM (A498, Renal cancer A498, 10 μM): 5.79%; inhibition at 10 µM [1]: < 5%; inhibition at 10 µM (ACHN, Renal cancer ACHN, 10 μM): < 5%; inhibition at 10 µM [2]: < 5%; inhibition at 10 µM [3]: 5.35%; inhibition at 10 µM [4]: 16%; inhibition at 10 µM [5]: < 5%; inhibition at 10 µM [6]: < 5%; inhibition at 10 µM [7]: < 5%; inhibition at 10 µM [8]: < 5%; inhibition at 10 µM [9]: < 5%; inhibition at 10 µM [10]: < 5%; inhibition at 10 µM [11]: 9.34%; inhibition at 10 µM [12]: < 5%; inhibition at 10 µM [13]: < 5%; inhibition at 10 µM [14]: 14.4%; inhibition at 10 µM [15]: < 5%; inhibition at 10 µM (K562, Leukemia K-562, 10 μM): 9.72%; inhibition at 10 µM [16]: 13%; inhibition at 10 µM (Leukemia SR, 10 μM): 40.3%; inhibition at 10 µM [17]: 16.1%; inhibition at 10 µM [18]: 18.8%; inhibition at 10 µM [19]: 8.01%; inhibition at 10 µM [20]: 41.7%; inhibition at 10 µM (MOLT-4, Leukemia MOLT-4, 10 μM): 16.1%; inhibition at 10 µM (Melanoma M14, 10 μM): < 5%; inhibition at 10 µM (Melanoma MALM-3M, 10 μM): 16.4%; inhibition at 10 µM [21]: < 5%; inhibition at 10 µM [22]: 15.9%; inhibition at 10 µM [23]: < 5%; inhibition at 10 µM [24]: < 5%; inhibition at 10 µM [25]: 27.9%; inhibition at 10 µM [26]: < 5%; inhibition at 10 µM [27]: 11.4%; inhibition at 10 µM [28]: < 5%; inhibition at 10 µM (Prostate cancer PC-3, 10 μM): 9.56%; inhibition at 10 µM [29]: < 5%; inhibition at 10 µM [30]: 9.76%; inhibition at 10 µM [31]: 13.3%; inhibition at 10 µM [32]: 11.1%; inhibition at 10 µM [33]: 16.9%; inhibition at 10 µM [34]: 7.35%; inhibition at 10 µM [35]: 9.87%; inhibition at 10 µM [36]: < 5%; inhibition at 10 µM [37]: < 5%; inhibition at 10 µM [38]: 5.72%; inhibition at 10 µM [39]: 12.6%; inhibition at 10 µM [40]: 12.2%; inhibition at 10 µM [41]: < 5%; inhibition at 10 µM [42]: 27.3%; inhibition at 10 µM [43]: < 5%; inhibition at 10 µM (U-251, CNS Cancer U251, 10 μM): 13%; inhibition at 10 µM [44]: 19.2%; inhibition at 10 µM [45]: < 5%; inhibition at 10 µM [46]: 11.7%

Question: Which results are given for `C/C(=N\Nc1ccc(C(=O)O)cc1)c1cnn(-c2cc(=O)[nH]c3ccc(Br)cc23)c1C` [Compound 4j, (E)-4-(2-(1-(1-(6-bromo-2-oxo-1,2-dihydroquinolin-4-yl)-5-methyl-1H-pyrazol-4-yl)ethylidene)hydrazineyl)benzoic acid]?
Answer: inhibition at 10 µM (786-0, Renal cancer 786-0, 10 μM): < 5%; inhibition at 10 µM (A498, Renal cancer A498, 10 μM): < 5%; inhibition at 10 µM [1]: < 5%; inhibition at 10 µM (ACHN, Renal cancer ACHN, 10 μM): < 5%; inhibition at 10 µM [2]: < 5%; inhibition at 10 µM [3]: 14.7%; inhibition at 10 µM [4]: < 5%; inhibition at 10 µM [5]: < 5%; inhibition at 10 µM [6]: < 5%; inhibition at 10 µM [7]: 6.05%; inhibition at 10 µM [8]: < 5%; inhibition at 10 µM [9]: < 5%; inhibition at 10 µM [10]: < 5%; inhibition at 10 µM (HL-60, Leukemia HL-60(TB), 10 μM): 7.02%; inhibition at 10 µM [11]: 5.55%; inhibition at 10 µM [12]: < 5%; inhibition at 10 µM [13]: < 5%; inhibition at 10 µM [14]: 11.7%; inhibition at 10 µM [15]: < 5%; inhibition at 10 µM (K562, Leukemia K-562, 10 μM): < 5%; inhibition at 10 µM (KM12, Colon cancer KM12, 10 μM): < 5%; inhibition at 10 µM [16]: < 5%; inhibition at 10 µM (Leukemia SR, 10 μM): 7.14%; inhibition at 10 µM [17]: < 5%; inhibition at 10 µM [18]: 17%; inhibition at 10 µM [19]: < 5%; inhibition at 10 µM [20]: < 5%; inhibition at 10 µM (MOLT-4, Leukemia MOLT-4, 10 μM): < 5%; inhibition at 10 µM (Melanoma M14, 10 μM): < 5%; inhibition at 10 µM (Melanoma MALM-3M, 10 μM): 14.4%; inhibition at 10 µM [21]: < 5%; inhibition at 10 µM [22]: 5.42%; inhibition at 10 µM [23]: < 5%; inhibition at 10 µM [24]: < 5%; inhibition at 10 µM [25]: < 5%; inhibition at 10 µM [26]: < 5%; inhibition at 10 µM (OVCAR-3, Ovarian cancer OVCAR-3, 10 μM): < 5%; inhibition at 10 µM [27]: < 5%; inhibition at 10 µM [28]: < 5%; inhibition at 10 µM (OVCAR-8, Ovarian cancer OVCAR-8, 10 μM): < 5%; inhibition at 10 µM (Prostate cancer PC-3, 10 μM): < 5%; inhibition at 10 µM [29]: < 5%; inhibition at 10 µM [30]: < 5%; inhibition at 10 µM [31]: < 5%; inhibition at 10 µM [32]: < 5%; inhibition at 10 µM [33]: 7.41%; inhibition at 10 µM [34]: < 5%; inhibition at 10 µM [35]: < 5%; inhibition at 10 µM [36]: < 5%; inhibition at 10 µM [37]: 4.08%; inhibition at 10 µM [38]: < 5%; inhibition at 10 µM [39]: < 5%; inhibition at 10 µM [40]: 17.2%; inhibition at 10 µM [41]: < 5%; inhibition at 10 µM [42]: 7.76%; inhibition at 10 µM [43]: < 5%; inhibition at 10 µM (U-251, CNS Cancer U251, 10 μM): < 5%; inhibition at 10 µM [44]: 6.6%; inhibition at 10 µM [45]: < 5%; inhibition at 10 µM [46]: 39.3%
